Active and inactive are the calls of the source. The calls are words filed in the database; no cut-off is given here.
Key:
Escherichia coli [1] = test: Induction of Cu2+-dependent DNA cleavage in pSP64 DNA assessed as form 2 DNA formation at 0.01 uM
Escherichia coli [2] = test: Induction of Cu2+-dependent DNA cleavage in pSP64 DNA assessed as form 3 DNA formation
Escherichia coli [3] = test: Induction of Cu2+-dependent DNA cleavage in pSP64 DNA assessed as form 2 DNA formation at 10 uM
Escherichia coli [4] = test: Induction of Cu2+-dependent DNA cleavage in pSP64 DNA assessed as form 2 DNA formation at 5 uM
Escherichia coli [5] = test: Induction of Cu2+-dependent DNA cleavage in pSP64 DNA assessed as form 2 DNA formation at 1 uM
Escherichia coli [6] = test: Induction of Cu2+-dependent DNA cleavage in pSP64 DNA assessed as form 2 DNA formation at 0.1 uM

CC1=CC(=O)O[C@H]1COC(=O)/C=C/c1ccc(O)c(O)c1
Activity (Escherichia coli [1]): 16% | Activity (Escherichia coli [2]): inactive | Activity (Escherichia coli [3]): 92% | Activity (Escherichia coli [4]): 88% | Activity (Escherichia coli [5]): 68% | Activity (Escherichia coli [6]): 32%

Source: ChEMBL document CHEMBL1158722, “Umbelactonyl cinnamate derivatives from Crypteronia paniculata that mediate DNA strand scission” (J Nat Prod, 2005)
